# Laboratory results reported in patent publication US20250275993A1, “GLYCOSYLATION INHIBITORS AS THERAPEUTICS FOR STROKE” (The Regents of the University of California, priority 2022, published 2025).
# How the values were obtained:
# [1] = tested on: VEGFR2; assay: VEGFR2 western blot in BCECs (molecular mass, phosphorylation, PNGase F); type: cell-based, bovine; settings: VEGF at 5 ng/ml for 24 hours
# Experimental: Glycerol-free PNGase F was obtained from New England Biolabs (Ipswich, MA). Briefly, BCECs were lysed with NP-40 containing proteinase inhibitors (Thermo Scientific, Waltham, MA). Lysates were cleared at 4° C. at 5000 g for 25 mins. Total protein content was measured using Pierce BCA protein assay kit (Thermo Scientific). 20 mg of protein was mixed with 10× denaturing buffer and H2O to a total volume of […]. Glycoproteins were denatured at 100° C. for 10 mins, followed by adding Glycobuffer and PNGase F. The reaction was carried out at 37° C. for 2 hr.
# Cells were allowed to reach-80% confluency in 12-well plates. […] At various time points, plates were taken out of the incubator and kept on ice. […] Lysates were collected and mixed with 4× Bolt LDS Sample Buffer (Novex, Carlsbad, CA) in the presence of Halt protease inhibitors and phosphatase inhibitor cocktail (ThermoFisher scientific, #NP0007). […] HUVECs (passage 6-8) were plated in EBM-2 basal medium (Lonza) with 0.2% FBS. Following overnight culture, cells were serum-starved in EBM-2 medium for 4 hrs prior to treatment with 50 ng/ml of VEGF165 or vehicle controls for various lengths. Equal amounts of protein lysates were analyzed by SDS-PAGE and blotted with the indicated antibodies. Proteins were transferred using Tris-Glycine buffer with 20% Methanol (Proteonomics grade) (Apex BioResearch Products). Membranes were first incubated with 5% milk in TBST, pH 7.6 (TEKnova, Hollister, CA), followed by blotting with primary and secondary antibodies. ECL anti-rabbit IgG, horseradish peroxidase linked whole antibody from donkey or sheep anti-mouse were obtained from GE Healthcare (UK limited). SuperSignal West Dura Extended Duration substrate was from ThermoFisher Scientific. In some cases, the same PVDF membranes were stripped by 8-min incubation in the Restore Plus Western Blot Stripping Buffer (ThermoFisher Scientific) to show total specific protein expression, followed by second stripping for (3-actin expression.
# [2] = tested on: skin wound; assay: Skin wound healing model (splinted wound); type: in vivo, mouse; settings: topical 20 μg daily; mice; PBS group 81.5%
# Description: The model has been previously described. Briefly, C57BL/6 female mice (8-10 weeks old) were obtained from Jackson labs (Sacramento, CA). A fresh, full-thickness punch wound (4 mm diameter) using a punch (Acu Punch, Acuderm inc. Ft. Lauderdale, FL) splinted with a sterile neoprene ring (6-mm outer diameter and 4-mm inner diameter), fastened with 5-6 sutures (4-0 nylon) under the influence of Isoflurane was created on the back of the animal in a Class II Biological Safety Cabinet. For all surgical procedures, sterile technique was followed. Buprenorphine was given subcutaneously prior to awakening from anesthesia for anticipated pain. Mice were monitored until fully awake and were housed individually to minimize damage/biting/fighting to the surgical site. […] Treatment agents were prepared in PBS, sterile-filtered and 25 μl solution was applied daily directly to a wound bed for the first 4-5 days under the influence of Isoflurane, followed by daily observation. Wound closure was monitored by regular imaging and the wound area was quantified using ImageJ (National Institutes of Health, Bethesda, MD, USA). […] Epithelial gap was measured histomorphometrically using AxioVision LE Rel.4.4 software. […] Small vessels stained positive for CD31 were counted microscopically on 10 fields (20×) taken around the wound.
# [3] = tested on: BCEC confluent monolayers; assay: BCEC scratch assay; type: cell-based, bovine; settings: 40 μM ManN or 50 ng/ml of VEGF; after 48 hours
# Experimental: BCECs (passage 6-10) and HUVEC (passage 6-8) were used in this assay. Cells were grown until about 80% confluency in 6-well plates, washed twice with PBS and then starved in serum-free DMEM (low Glucose, Hyclone) for 5 hrs before making a “scratch” using 1 ml tip. Cell monolayers were briefly washed once with serum-free media, followed by various treatments in media containing 1% FBS. 48 hrs later, the assay was stopped by adding 2 ml 4% paraformaldehyde. 20 min later, fixed cells were stained with 1 ml Crystal Violet (Sigma). Plates were washed gently under the running tap water and air-dried before taking pictures. Images were acquired by ZEISS Discovery […] microscopy equipped with […] camera. Quantification of wound closure was done using AxioVision LE Rel.4.4 software. Six images were taken for each sample and six measurements (in pixel) were made on each image using AxioVision LE Re1.4.4 software.
substance,measurement,setting,value
VEGF,effect of VEGF alone on VEGFR2 molecular mass,[1],no effect on molecular mass
same,average closure of the wound on day 4,[2],66.9%
same,closure of the scratched area vs control,[3],significantly accelerated BCEC migration and/or proliferation
